# Test results published in article PMC6150201, “Synthesis and Antitumor Activity of Novel Arylpiperazine Derivatives Containing the Saccharin Moiety” (Molecules : A Journal of Synthetic Chemistry and Natural …, 2017).
# Read-outs that look alike come from different tables or passages of the source.
# Experiments:
# LNCaP cells [1] = assay: In vitro cytotoxicity, CCK-8 assay, LNCaP cells; format: cell-based, human; settings: for IC50: LNCaP, androgen-sensitive human prostate cancer cell line, CCK-8, 24 h exposure, mean ± SD of three experiments; for selective activity for LNCaP cells over other cancer cells: from IC50 comparison
# Protocol: (§1) The synthesized target compounds 4–21 were evaluated for their in vitro cytotoxic activities against three human prostate cancer cell lines (PC-3, LNCaP, and DU145) and compared with their effects on the human prostate epithelial cell line WPMY-1 by CCK-8 assay.
# (§2) PC-3 and WPMY-1 cells were cultured in Dulbecco’s modified Eagle’s medium (DMEM, Invitrogen, Carlsbad, CA, USA) supplemented with 10% fetal bovine serum (FBS, Hyclone, Logan, UT, USA), 100 U/mL penicillin, and 0.1 mg/mL streptomycin (Invitrogen). DU145 cells were cultured in RPMI1640 media supplemented with 10% fetal bovine serum (FBS, Hyclone), 100 U/mL penicillin, and 0.1 mg/mL streptomycin (Invitrogen). LNCaP cells were cultured in F12 media supplemented with 10% fetal bovine serum (FBS, Hyclone), 100 U/mL penicillin, and 0.1 mg/mL streptomycin (Invitrogen). The cells were incubated at 37 °C in a humidified atmosphere with 5% CO2.
# (§3) Cell proliferation was measured with the Cell Counting Kit-8 (CCK-8) assay kit (Dojindo Corp., Kumamoto, Japan). Cells were harvested during their logarithmic growth phase, seeded in 96-well plates at a density of 1 × 10^5 cells/mL, and cultured at 37 °C in a humidified incubator (5% CO2) for 24 h, followed by exposure to various concentrations of compounds tested for 24 h. Subsequently, 10 μL of CCK-8 (Dojindo) was added to each well, and the cells were then incubated for an additional 1 h at 37 °C to convert WST-8 into formazan. Cell growth inhibition was determined by measuring the absorbance (Abs) at λ = 450 nm using a microplate reader. Three independent experiments were performed. Cell growth inhibition was calculated according to the following equation: Growth inhibition = (1 − OD of treated cells / OD of control cells) × 100%
# (§4) The half maximal inhibitory concentrations (IC50) were obtained from a linear regression analysis of the concentration-response curves plotted for each tested compound.
# PC-3 cells [2] = assay: In vitro cytotoxicity, CCK-8 assay, PC-3 cells; format: cell-based, human; settings: for IC50: PC-3, androgen-insensitive human prostate cancer cell line, CCK-8, 24 h exposure, mean ± SD of three experiments; for selective activity for PC-3 cells over other cancer cells: from IC50 comparison
# Protocol: as §1, §2, §3, §4
# DU145 cells [3] = assay: In vitro cytotoxicity, CCK-8 assay, DU145 cells; format: cell-based, human; settings: for IC50: androgen-insensitive human prostate cancer cell line, CCK-8, 24 h exposure, mean ± SD of three experiments; for selective activity for DU145 cells over other cancer cells: in words, from IC50 comparison
# Protocol: as §1, §2, §3, §4
# WPMY-1 cells = assay: In vitro cytotoxicity, CCK-8 assay, WPMY-1 prostate epithelial cells; format: cell-based, human; settings: for IC50: WPMY-1, human prostate epithelial cell line, CCK-8, 24 h exposure, mean ± SD of three experiments
# Protocol: as §1, §2, §3, §4
# PC-3 cells [4] = system: PC-3 cells; design: method as in PMID 24910245; settings: reference compound, SD not given; cited from earlier work
# DU145 cells [5] = system: DU145 cells; design: method as in PMID 24910245; settings: reference compound, SD not given; cited from earlier work
# LNCaP cells [6] = system: LNCaP cells; design: method as in PMID 24910245; settings: reference compound, SD not given; cited from earlier work
Compound,melting point [°C],IC50 (LNCaP cells [1]) [µM],cytotoxic activity for LNCaP cells (in words) (LNCaP cells [1]; in words),IC50 (PC-3 cells [2]) [µM],cytotoxic activity for PC-3 cells (in words) (PC-3 cells [2]; in words),"IC50 (DU145 cells [3]; Homo sapiens, DU-145, 24 h) [µM]",selective activity for PC-3 cells over other cancer cells (PC-3 cells [2]; in words),IC50 (WPMY-1 cells) [µM],IC50 (PC-3 cells [4]) [µM],IC50 (DU145 cells [5]) [µM],IC50 (LNCaP cells [6]) [µM],selective activity for LNCaP cells over other cancer cells (LNCaP cells [1]; in words),selective activity for DU145 cells over other cancer cells (DU145 cells [3]),IC50 (DU145 cells [3]) [µM],cytotoxic effects on human epithelial prostate normal cells WPMY-1 (in words) (WPMY-1 cells)
"COc1ccccc1N1CCN(CC(O)COc2cccc3ccccc23)CC1 (centres unmarked) [Naftopidil, reference compound]",,22.4 ± 0.61,,42.1 ± 0.79,,34.58 ± 0.31,,> 50,,,,,,,
"O=C1c2ccccc2S(=O)(=O)N1Cc1ccc(CCN2CCN(c3ncccn3)CC2)cc1 [Compound 6, Saccharin N-(2-(4-(4-(methyl)phenethyl)piperazin-1-yl)pyrimidine)]",153 to 154,> 50,,4.84 ± 0.17,,> 50,excellent selective activity,48.3 ± 0.56,,,,,,,
"Cc1ccc(N2CCN(CCc3ccc(CN4C(=O)c5ccccc5S4(=O)=O)cc3)CC2)cc1 [Compound 8, Saccharin N-(1-(4-(methyl)phenethyl)-4-p-tolylpiperazine)]",130 to 131,> 50,,> 50,,> 50,,,,,,,,,
"COc1ccc(N2CCN(CCc3ccc(CN4C(=O)c5ccccc5S4(=O)=O)cc3)CC2)cc1 [Compound 10, Saccharin N-(1-(4-(methyl)phenethyl)-4-(4-methoxyphenyl)piperazine)]",149 to 150,> 50,,4.38 ± 0.13,,2.28 ± 0.05,,> 50,,,,,,,
CC(C)(C)NC(=O)[C@H]1CC[C@H]2[C@@H]3CC[C@H]4NC(=O)C=C[C@]4(C)[C@H]3CC[C@]12C [Finasteride],,,,,,,,,17.8,13.5,14.5,,,,
"O=C1c2ccccc2S(=O)(=O)N1Cc1ccc(CCN2CCN(c3ccccc3F)CC2)cc1 [Compound 11, Saccharin N-(1-(4-(methyl)phenethyl)-4-(2-fluorophenyl)piperazine)]",137 to 138,47.5 ± 2.17,,> 50,,> 50,,> 50,,,,,,,
"O=C1c2ccccc2S(=O)(=O)N1Cc1ccc(CCN2CCN(c3ccccn3)CC2)cc1 [Compound 5, Saccharin N-(1-(4-(methyl)phenethyl)-4-(pyridin-2-yl)piperazine)]",149 to 150,> 50,,> 50,,3.57 ± 0.08,,> 50,,,,,excellent selective activity,,
"O=C1c2ccccc2S(=O)(=O)N1Cc1ccc(CCN2CCN(c3ccccc3)CC2)cc1 [Compound 4, Saccharin N-(1-(4-(methyl)phenethyl)-4-phenylpiperazine)]",147 to 148,> 50,,> 50,,< 2,,> 50,,,,,excellent selective activity,1.28 ± 0.04,
"O=C1c2ccccc2S(=O)(=O)N1Cc1ccc(CCN2CCN(c3ccc(F)cc3)CC2)cc1 [Compound 12, Saccharin N-(1-(4-(methyl)phenethyl)-4-(4-fluorophenyl)piperazine)]",152 to 153,> 50,,> 50,,< 2,,> 50,,,,,excellent selective activity,1.14 ± 0.1,weak cytotoxic effects
"COc1cccc(N2CCN(CCc3ccc(CN4C(=O)c5ccccc5S4(=O)=O)cc3)CC2)c1 [Compound 9, Saccharin N-(1-(4-(methyl)phenethyl)-4-(3-methoxyphenyl)piperazine)]",134 to 135,> 50,,5.43 ± 0.18,,> 50,excellent selective activity,> 50,,,,,,,
"Cc1cccc(N2CCN(CCc3ccc(CN4C(=O)c5ccccc5S4(=O)=O)cc3)CC2)c1 [Compound 7, Saccharin N-(1-(4-(methyl)phenethyl)-4-m-tolylpiperazine)]",126 to 127,> 50,,> 50,,3.65 ± 0.1,,> 50,,,,,excellent selective activity,,
"O=C1c2ccccc2S(=O)(=O)N1Cc1ccc(CCN2CCN(c3ccc(F)cc3F)CC2)cc1 [Compound 13, Saccharin N-(1-(4-(methyl)phenethyl)-4-(2,4-difluorophenyl)piperazine)]",113 to 114,5.03 ± 0.13,,> 50,,> 50,,> 50,,,,excellent selective activity,,,

# Second part, led by results:
melting point [°C],Compound,IC50 (LNCaP cells [1]) [µM],cytotoxic activity for LNCaP cells (in words) (LNCaP cells [1]; in words),IC50 (PC-3 cells [2]) [µM],cytotoxic activity for PC-3 cells (in words) (PC-3 cells [2]; in words),"IC50 (DU145 cells [3]; Homo sapiens, DU-145, 24 h) [µM]",selective activity for PC-3 cells over other cancer cells (PC-3 cells [2]; in words),IC50 (WPMY-1 cells) [µM],IC50 (PC-3 cells [4]) [µM],IC50 (DU145 cells [5]) [µM],IC50 (LNCaP cells [6]) [µM],selective activity for LNCaP cells over other cancer cells (LNCaP cells [1]; in words),selective activity for DU145 cells over other cancer cells (DU145 cells [3]),IC50 (DU145 cells [3]) [µM],cytotoxic effects on human epithelial prostate normal cells WPMY-1 (in words) (WPMY-1 cells)
158 to 159,O=C1c2ccccc2S(=O)(=O)N1Cc1ccc(CCN2CCN(c3ccc(Cl)cc3)CC2)cc1 [Compound 16],> 50,weak cytotoxic activity,> 50,weak cytotoxic activity,> 50,,,,,,,,,
108 to 109,"O=C1c2ccccc2S(=O)(=O)N1Cc1ccc(CCN2CCN(c3ccc(C(F)(F)F)cc3)CC2)cc1 [Compound 21, Saccharin N-(1-(4-(methyl)phenethyl)-4-(4-(trifluoromethyl)phenyl)piperazine)]",> 50,,3.73 ± 0.08,,> 50,excellent selective activity,,,,,,,,
143 to 144,"O=C1c2ccccc2S(=O)(=O)N1Cc1ccc(CCN2CCN(c3cccc(Cl)c3)CC2)cc1 [Compound 15, Saccharin N-(1-(4-(methyl)phenethyl)-4-(3-chlorophenyl)piperazine)]",3.43 ± 0.16,,2.74 ± 0.11,,> 50,,> 50,,,,,,,
179 to 180,"N#Cc1ccc(N2CCN(CCc3ccc(CN4C(=O)c5ccccc5S4(=O)=O)cc3)CC2)cc1 [Compound 20, Saccharin N-(4-(4-(4-(methyl)phenethyl)piperazin-1-yl)benzonitrile)]",3.43 ± 0.1,,2.66 ± 0.04,,> 50,,46.3 ± 0.51,,,,,,,
105 to 106,"O=C1c2ccccc2S(=O)(=O)N1Cc1ccc(CCN2CCN(c3ccc(Br)cc3)CC2)cc1 [Compound 18, Saccharin N-(1-(4-(methyl)phenethyl)-4-(4-bromophenyl)piperazine)]",> 50,,2.25 ± 0.07,,9.05 ± 0.23,,> 50,,,,,,,
146 to 147,"N#Cc1ccccc1N1CCN(CCc2ccc(CN3C(=O)c4ccccc4S3(=O)=O)cc2)CC1 [Compound 19, Saccharin N-(2-(4-(4-(methyl)phenethyl)piperazin-1-yl)benzonitrile)]",5.14 ± 0.16,,> 50,,> 50,,39.15 ± 0.17,,,,excellent selective activity,,,
135 to 136,"O=C1c2ccccc2S(=O)(=O)N1Cc1ccc(CCN2CCN(c3ccccc3Cl)CC2)cc1 [Compound 14, Saccharin N-(1-(4-(methyl)phenethyl)-4-(2-chlorophenyl)piperazine)]",> 50,,14.6 ± 1.12,,3.39 ± 0.11,,,,,,,excellent selective activity,,
178 to 179,"O=C1c2ccccc2S(=O)(=O)N1Cc1ccc(CCN2CCN(c3cccc(Cl)c3Cl)CC2)cc1 [Compound 17, Saccharin N-(1-(4-(methyl)phenethyl)-4-(2,3-dichlorophenyl)piperazine)]",4.08 ± 0.15,,> 50,,> 50,,> 50,,,,excellent selective activity,,,weak cytotoxic effects
